# Measurements published in JPH0240324A, “キサントシリンxモノメチルエーテルを含有する駆虫剤” (Meiji Seika Kaisha Ltd, priority 1988, dated 1990).
# System: chicken roundworm [鶏回虫(^5earidia galli)]
# Assay: Anthelmintic test: single oral dose to chickens infected with chicken roundworm; worm expulsion rate over 7 days
# Type: in vivo, chicken roundworm (^5earidia galli)
# Settings: for worm expulsion rate (mean): single oral dose (gelatin capsule), n = 3, 7 days, untreated control 0%
structure (smiles),measurement,setting,value
"[C-]#[N+]C(=Cc1ccc(O)cc1)C(=Cc1ccc(OC)cc1)[N+]#[C-] [キサントシリンXモノメチルエーテル, 1(p−ヒドロキシフェニル)−2、3−ジイソシフノー4−(p−メトキシフェニル)−ブタ−1,3−ツエン]",worm expulsion rate (mean),5 mg/kg,8%
same,worm expulsion rate (mean),10 mg/kg,69.7%
same,worm expulsion rate (mean),"20 mg/kg, completely expelled",100%
same,anthelmintic effect,"doses of 10 mg/kg to 20 mg/kg, single oral dose",確実な駆虫効果が確認された
same,time after dosing within which most worms were expelled,"most of the medicated groups, single oral dose 5-20 mg/kg",≤ 2 days
